The record followed here is US20220177508A1, “C10-Cyclic Substituted 13-Membered Macrolides and Uses Thereof” (Zikani Therapeutics, Inc., priority 2018, published 2022).

For data set [1] the following is noted: ester bond, chlorobenzene.
Another data set deals with S. aureus MP-12. In words: Broth dilution MIC determination (CLSI), S. aureus MP-12. The class given is cell-based. Conditions: Staphylococcus aureus, MP12; strain MP-12, broth dilution. On the technique in general: Broth dilution looks for growth in wells or tubes with falling amounts of substance.
A further data set deals with E. coli MP-4. In words: Broth dilution MIC determination (CLSI), E. coli MP-4. The note with it: Escherichia coli, MP4; strain MP-4, broth dilution; read-out: MIC E. coli MP-4. The class given is cell-based.
The test system of a further data set is K. pneumoniae MP-546. In words: Broth dilution MIC determination (CLSI), K. pneumoniae MP-546. It counts as cell-based. Conditions: Klebsiella pneumoniae, MP546; strain MP-546, broth dilution.
In another data set the test system is A. baumannii MP-15. The experiment in a line: Broth dilution MIC determination (CLSI), A. baumannii MP-15. The class given is cell-based. The note with it: Acinetobacter baumannii, MP15; strain MP-15, broth dilution; read-out: MIC A. baumanii MP-15.
A further data set relates to K. pneumoniae MP-648. The experiment in a line: Broth dilution MIC determination (CLSI), K. pneumoniae MP-648. The class given is cell-based. Conditions: Klebsiella pneumoniae, MP648; strain MP-648, broth dilution.
Another data set deals with P. aeruginosa MP-3. The experiment in a line: Broth dilution MIC determination (CLSI), P. aeruginosa MP-3. It counts as cell-based. Conditions: Pseudomonas aeruginosa, MP3; strain MP-3, broth dilution.

Each structure is given as a SMILES string. ≈ marks a conversion by molar mass, not a printed value. Read-outs that look alike come from different tables or passages of the source. Bounds are passed on as bounds.

Take `CO[C@]1(C)C[C@@H](C)CN(C)[C@H](c2ccc(Br)cc2)COC(=O)C(C)C(=O)[C@H](C)[C@H]1O[C@@H]1O[C@H](C)C[C@H](N(C)C)[C@H]1OC(=O)c1ccccc1` (some centres unmarked): the ring closure, yield of all isomers in data set [1] (from CO[C@](C)(C[C@@H](C)CN(C)[C@@H](CO)c1ccc(Br)cc1)[C@H](O[C@@H]1O[C@H](C)C[C@H](N(C)C)[C@H]1OC(=O)c1ccccc1)[C@@H](C)C1=C(C)C(=O)OC(C)(C)O1, 4.0 mM, 165.0 °C, 20.0 h) worked out at 99%.
With `CO[C@]1(C)C[C@@H](C)CN(C(=O)OCc2ccccc2)[C@H](C2CCN(C(=O)OC(C)(C)C)CC2)COC(=O)[C@H](C)C(=O)[C@H](C)[C@H]1O[C@@H]1O[C@H](C)C[C@H](N(C)C)[C@H]1OC(=O)c1ccccc1`, the ring closure, yield of all isomers in data set [1] (from CO[C@](C)(C[C@@H](C)CN(C(=O)OCc1ccccc1)[C@@H](CO)C1CCN(C(=O)OC(C)(C)C)CC1)[C@H](O[C@@H]1O[C@H](C)C[C@H](N(C)C)[C@H]1OC(=O)c1ccccc1)[C@@H](C)C1=C(C)C(=O)OC(C)(C)O1, 3.15 mM, 148.0 °C, 23.0 h) came out at 29%.
By MIC is commonly meant the smallest concentration in the dilution series that meets the test's criterion for growth inhibition. Take `CO[C@]1(C)C[C@@H](C)CN(C)[C@H](C2CN(C(=O)CCCN(C)CC3CCC3)C2)COC(=O)C(C)(C)C(=O)[C@H](C)[C@H]1O[C@@H]1O[C@H](C)C[C@H](N(C)C)[C@H]1O` [Compound 156, (3R,6R,8R,9R,10R)-3-(1-(4-((cyclobutylmethyl)(methyl)amino)butanoyl)azetidin-3-yl)-9-(((2S,3R,4S,6R)-4-(dimethylamino)-3-hydroxy-6-methyltetrahydro-2H-pyran-2-yl)oxy)-8-methoxy-4,6,8,10,12,12-hexamethyl-1-oxa-4-azacyclotridecane-11,13-dione]: the minimal inhibitory concentration (MIC) in the data set with S. aureus MP-12 is > 32 mg/L; in the data set on E. coli MP-4, < 4 mg/L; in the data set on K. pneumoniae MP-546 it was 4 to 32 mg/L (≈ 5.53 to 44.3 µM); with A. baumannii MP-15, > 32 mg/L; against K. pneumoniae MP-648 it was 4 to 32 mg/L (≈ 5.53 to 44.3 µM); against P. aeruginosa MP-3, > 32 mg/L.
Take `CO[C@]1(C)C[C@@H](C)CN(C)[C@H](C2CN(Cc3cc(C)on3)C2)COC(=O)C(C)(C)C(=O)[C@H](C)[C@H]1O[C@@H]1O[C@H](C)C[C@H](N(C)C)[C@H]1O` [Compound 132, (3R,6R,8R,9R,10R)-9-(((2S,3R,4S,6R)-4-(dimethylamino)-3-hydroxy-6-methyltetrahydro-2H-pyran-2-yl)oxy)-8-methoxy-4,6,8,10,12,12-hexamethyl-3-(1-((5-methylisoxazol-3-yl)methyl)azetidin-3-yl)-1-oxa-4-azacyclotridecane-11,13-dione]: the MIC with S. aureus MP-12 is 4 to 32 mg/L (≈ 6.15 to 49.2 µM); in the data set on E. coli MP-4, 4 to 32 mg/L (≈ 6.15 to 49.2 µM); against K. pneumoniae MP-546 it was 4 to 32 mg/L (≈ 6.15 to 49.2 µM); in the data set with A. baumannii MP-15 it was > 32 mg/L; against K. pneumoniae MP-648 it was > 32 mg/L; against P. aeruginosa MP-3, > 32 mg/L.
